Assay results published in PMC3994577 (BMC Infectious Diseases, 2014).
Like-named read-outs stand apart in the source and are kept apart here.

Columns and labels:
[1] = single oral dose, co-administration of a high fat meal; cited from earlier work
[2] = cited from earlier work
[3] = Early RBV plasma exposure (AUC0-4h) after a 600 mg first dose of RBV; type: in vivo, human (patients with chronic hepatitis C); settings: for AUC(0-t): human, plasma, oral, 600 mg
Description: Patients were divided into two groups according to their HIV status. […] All patients gave their informed consent before they entered the study.
The plasma AUC was determined for each patient before the antiviral treatment or at the first day.
Results of AUC and normalized AUC were analyzed according to the two groups defined by the HIV status.
All quantitative variables were expressed as median and range. Comparisons of data were made using the non-parametric Mann–Whitney test. Statistical analysis was performed using the Statistica® software package (StatSoft Inc). […] A p value below 0.05 was considered as statistically significant.

Patients with AUC0-4h <1755 ([3]; HCV monoinfected patients (n = 63), threshold 1755 μg.h/L): 32% | patients with AUC0-4h above the threshold of 1755 μg.h/L ([3]; HIV-HCV coinfected patients): 39% | AUC(0-t) ([3]; HCV monoinfected patients (n = 63), single 600 mg RBV dose, median (range), read-out: AUC0-4h): 2030 ng·h/mL | AUC(0-t) ([3]; HCV monoinfected, HCV treatment naive patients, read-out: median AUC0-4h): 2430 ng·h/mL | AUC(0-t) ([3]; HCV monoinfected, non-responders, read-out: median AUC0-4h): 1870 ng·h/mL | AUC(0-t) ([3]; HCV monoinfected, relapsers, read-out: median AUC0-4h): 2020 ng·h/mL | AUC(0-t) ([3]; HIV-HCV coinfected patients (n = 23), single 600 mg RBV dose, median (range), read-out: AUC0-4h): 1470 ng·h/mL | AUC(0-t) ([3]; HIV-HCV coinfected patients with CD4 < 500/mm^3, median (range), read-out: AUC0-4h): 1270 ng·h/mL | AUC(0-t) ([3]; HIV-HCV coinfected patients with CD4 ≥ 500/mm^3, median (range), read-out: AUC0-4h): 1840 ng·h/mL | AUC(0-t) ([3]; RBV-AUC 0-4h (median), HCV monoinfected patients, abstract): 2030 ng·h/mL | AUC(0-t) ([3]; RBV-AUC 0-4h (median), HIV-HCV coinfected patients, abstract): 1470 ng·h/mL | AUC(0-t) ([3]; all three HIV-HCV coinfected patients with detectable HIV RNA, read-out: AUC0-4h): < 1760 ng·h/mL | Men with AUC0-4h <1755 ([3]; male HCV monoinfected patients): 43% | Men with AUC0-4h <1755 ([3]; male HIV-HCV coinfected patients): 65% | AUC(0-t) ([3]; male, male HCV monoinfected patients, single 600 mg dose, median (range), read-out: Men AUC0-4h): 1880 ng·h/mL | AUC(0-t) ([3]; male, male HIV-HCV coinfected patients, single 600 mg dose, median (range), read-out: Men AUC0-4h): 1410 ng·h/mL
Compound: NC(=O)c1ncn([C@@H]2O[C@H](CO)[C@@H](O)[C@H]2O)n1 [RBV, ribavirin]
AUCtf (from time zero to the time of the final quantifiable sample) [1]: increased | Cmax [1]: increased | patients with AUC0-4h below the 1755 μg.h/L threshold ([2]; historical study, monoinfected HCV genotype 1 patients): 58% | threshold for RBV plasma AUC from 0 to 4 h post-dose discriminating SVR from non-response ([2]; single dose of 600 mg, HCV monoinfected patients): 1755 µg·h/L
